The values that follow come from ChEMBL document CHEMBL3507680, “University of Dundee, Gates Library screen for HepG2 cell viability”.

A short description of the series: Human HepG2 cell viability assay in 384 well format. Particulars: HepG2 cells, read-out: Inhibition. Also noted: dose 125 nL, time 70.5 hour; concentration not given beside the values. It is filed as toxicity, cell-based.
Take `CCC1CCCCN1C(=O)Cn1nc(-c2ccc(C)s2)cc(N)c1=O` (configuration not stated): the cytotoxicity at 70.5 h is -2.23%.

Consider `Cc1cc(NC(=O)N2CCCC(CO)C2)nn1-c1ccccc1Cl` (configuration not stated), for which the cytotoxicity at 70.5 h was -1.91%.

Consider `COc1ccc(CCN2C(=O)O[C@@H]3CN(C4CCSCC4)C[C@@H]32)cc1`, for which the cytotoxicity at 70.5 h is -6.37%.

With `O=C(CC1CN(Cc2ccccc2)CCO1)NC1CCCC1` (configuration not stated), the cytotoxicity at 70.5 h is 11.6%.

With `Cc1ccc(CC(=O)N2CCOC(c3ncc(CN(C)C)[nH]3)C2)s1` (configuration not stated), the cytotoxicity at 70.5 h is -6.18%.

Turning to `Cc1c(CN2CCCC(C(=O)CCc3ccccc3)C2)cc(C#N)n1C` (configuration not stated), the cytotoxicity at 70.5 h was determined as 12%.

Consider `Cc1cc(CC(=O)NC2CCCN(Cc3ccccc3)C2=O)n[nH]1` (configuration not stated), for which the cytotoxicity at 70.5 h is -21.2%.

Turning to `CC(=O)Nc1nc(CN2CCn3c(nnc3C3CC3)C2)cs1`, the cytotoxicity at 70.5 h was -7.7%.

With `O=C(CN1CCS(=O)(=O)CC1)NCc1cccc(Br)c1`, the cytotoxicity at 70.5 h was -2.1%.

Take `CC(C)C[C@H](N)c1nnc(SCC(=O)Nc2ccc(Br)cc2)o1`: the cytotoxicity at 70.5 h was -5.07%.

In the case of `c1nc(N2CCOCC2)ncc1-c1cncn1CCCN1CCCCC1`, the cytotoxicity at 70.5 h was -13.7%.

As to `Cc1ccc(N2CCC3(CCN(C(=O)c4ccsc4)CC3)C2)nn1`, the cytotoxicity at 70.5 h was 4.86%.

For the molecule `Cc1nc(-c2ccncc2)ncc1C(C)NC(=O)CN1CCOC1=O` (configuration not stated), the cytotoxicity at 70.5 h is -5.31%.

As for `CCOc1ccc(Cl)c(C(=O)NC(Cc2ccccc2)C(N)=O)n1` (configuration not stated), the cytotoxicity at 70.5 h is -1.23%.

In the case of `Cc1cccc(CN2CCc3cc(C(=O)O)c(N(C)C)nc3CC2)n1`, the cytotoxicity at 70.5 h is -5.66%.

On to `O=C(O)c1cc(/C=C/c2ccc3ccccc3c2)ncn1`, for which the cytotoxicity at 70.5 h is -7.92%.

With `COc1ccccc1N1CCC(CNCc2cccc(C#N)c2)C1` (configuration not stated), the cytotoxicity at 70.5 h worked out at 35.6%.

Regarding `CC1CCCCN1c1nc2c(c(=O)[nH]1)CCN(Cc1ccccn1)C2` (configuration not stated), the cytotoxicity at 70.5 h was 3.45%.

With `O=C(NCc1csc(-c2cccs2)n1)C1NCCc2[nH]cnc21` (configuration not stated), the cytotoxicity at 70.5 h was -19.8%.

Turning to `CS(=O)(=O)N1CCC2(CC1)CC(NCc1ccccn1)c1ccccc12` (configuration not stated), the cytotoxicity at 70.5 h is -9.6%.

As for `CN(C)C(=O)N1CCC2(C1)CN(c1cccnc1)C(=O)CN2C` (configuration not stated), the cytotoxicity at 70.5 h is -7.38%.

In the case of `CN1CCN(CC(NCc2cccc(O)c2)c2ccccc2)CC1` (configuration not stated), the cytotoxicity at 70.5 h is -5.45%.

As to `COc1ccc(NC(=O)C(c2cccc(F)c2)N2CCOCC2)cc1` (configuration not stated), the cytotoxicity at 70.5 h is -8.8%.

On to `CC(C)(C)OC(=O)N1CCN(C(=O)c2sccc2C2CC2)CC1`, for which the cytotoxicity at 70.5 h is -10%.

As to `CCc1nnc(SC2CCCN(c3cccc(F)c3)C2=O)n1C` (configuration not stated), the cytotoxicity at 70.5 h was -8.7%.

Turning to `CCC(OC)C(=O)NCC1CCN(c2cnn(C)c(=O)c2)CC1` (configuration not stated), the cytotoxicity at 70.5 h is -3.42%.

For `CCCn1cnc(NC(=O)NCC2CCS(=O)(=O)C2)n1` (configuration not stated), the cytotoxicity at 70.5 h came out at 12.9%.

With `CS(=O)(=O)c1cc(C(=O)NS(=O)(=O)Cc2ccc(F)cc2)ccc1Cl`, the cytotoxicity at 70.5 h is -3.9%.

For the molecule `COCC(=O)NS(=O)(=O)c1ccc(F)c(F)c1`, the cytotoxicity at 70.5 h was -2.65%.

With `Cc1nnsc1CN1C[C@@H]2CC[C@H](C1)N(Cc1c(C)noc1C)C2=O`, the cytotoxicity at 70.5 h is -0.902%.

`CN(C)c1cccc(CNC(=O)Nc2ccc3[nH]nnc3c2)n1`: the cytotoxicity at 70.5 h was -2.68%.

For `Cc1cc(N)nc(C2(C)CCCN2C(=O)Cc2ccc(F)cc2)n1` (configuration not stated), the cytotoxicity at 70.5 h is -8.7%.

As for `c1coc(-c2nc3c(c(N4CCCN5CCC[C@H]5C4)n2)CCNCC3)c1`, the cytotoxicity at 70.5 h is -2.19%.

Consider `O=C(NCc1ccccn1)[C@]12COC[C@H]1CN(Cc1cccnc1)C2`, for which the cytotoxicity at 70.5 h is -7.77%.

In the case of `CN1CC[C@]2(CN(CC3CC3)C[C@H]2c2ccccc2)C1=O`, the cytotoxicity at 70.5 h worked out at 23.4%.

Regarding `CC(C)c1nc2n(n1)CC(Nc1ncnc3ccccc13)CC2` (configuration not stated), the cytotoxicity at 70.5 h is -13%.

As for `Cc1cc(C)n(CC2CCCCN2CC(=O)NC2CCOCC2)n1` (configuration not stated), the cytotoxicity at 70.5 h was 18.3%.

Turning to `Cc1cccc(CN2CC[C@H]3OCC[C@@]3(C(=O)N3CCCO3)C2)n1`, the cytotoxicity at 70.5 h was -2.84%.

For `CSc1ccc(NC(=O)COCc2ccccc2)nc1`, the cytotoxicity at 70.5 h worked out at 15%.

For `Cc1[nH]ncc1C(=O)N1CCN(CC(O)C(C)(C)C)CC1` (configuration not stated), the cytotoxicity at 70.5 h is -14.9%.

Take `c1cc(-c2nnn3c2COC(CNCC2CCOCC2)C3)ccn1` (configuration not stated): the cytotoxicity at 70.5 h is 32.3%.

In the case of `CCN1CC(C(=O)NC(C)(C)C(=O)OC)CC1=O` (configuration not stated), the cytotoxicity at 70.5 h amounted to 3.17%.

On to `CN1CCN(Cc2cnn(-c3ccc(F)cc3)c2)[C@H]2CS(=O)(=O)C[C@H]21`, for which the cytotoxicity at 70.5 h was -4.08%.

Take `CS(=O)(=O)Cc1ccc(Cl)cc1NCc1cccc(F)c1F`: the cytotoxicity at 70.5 h came out at 2.24%.

Take `O=c1[nH]c(-c2ccc(F)cc2)nc2c1CCNC2`: the cytotoxicity at 70.5 h is -0.466%.

Consider `Cc1cc(C)c(C(=O)N2CCOCC2c2c(C)n[nH]c2C)o1` (configuration not stated), for which the cytotoxicity at 70.5 h is -6.5%.

`Cc1cc(C)n(CC2CCCN2CC(=O)N(C)Cc2cnn(C)c2)n1` (configuration not stated): the cytotoxicity at 70.5 h was -9.95%.

Regarding `CN(C)CC1(O)CCN(Cc2cnc3c(-c4ccccc4)cnn3c2)C1` (configuration not stated), the cytotoxicity at 70.5 h was -4.22%.

As for `CC1CCN(c2ccc(C(=O)N3CCCC3c3nncn3C)cn2)CC1` (configuration not stated), the cytotoxicity at 70.5 h was determined as 8.02%.

In the case of `CC(C)CCNC(=O)Cc1cnc(-n2cccc2)s1`, the cytotoxicity at 70.5 h is -21%.

For `CNC(=O)c1cc(NC(=O)NC2CC2)ccc1F`, the cytotoxicity at 70.5 h was -8.55%.

Turning to `CCCN(Cc1cccc(OCCO)c1)Cc1ccccc1OC`, the cytotoxicity at 70.5 h stood at 5.31%.

With `CC(C)CN1CCC(NCCNc2cccnc2)CC1`, the cytotoxicity at 70.5 h is -17.2%.

`Cc1ccc(C(=O)N2CCC3(CC2)CC(c2ccccc2)C(=O)N3)cn1` (configuration not stated): the cytotoxicity at 70.5 h was 0.473%.

Turning to `CCN1CC[C@@]2(C(=O)N3CCOCC3)CCN(C(=O)CC(C)C)CC[C@@H]12`, the cytotoxicity at 70.5 h is -2.66%.

With `CCN(CC)CCn1cnc(-c2ccccc2)c1-c1ncc[nH]1`, the cytotoxicity at 70.5 h is -10.3%.

For `CS(=O)(=O)c1snnc1C1CCN(Cc2cccnc2)CC1`, the cytotoxicity at 70.5 h is 8.4%.

For the molecule `CCn1cc(CN2CCCn3nc(CNS(C)(=O)=O)cc3C2)c(C)n1`, the cytotoxicity at 70.5 h was determined as 13.3%.

Take `COc1cc(N(C)Cc2cccc(-n3cccn3)c2)nc(N)n1`: the cytotoxicity at 70.5 h was -1.55%.

Consider `CCN(CC)C(=O)CN1CCc2nc(C3CCNCC3)nc(NC)c2C1`, for which the cytotoxicity at 70.5 h is -4.13%.

With `N#Cc1c(CN2CCCCC2Cn2cncn2)cn2ccccc12` (configuration not stated), the cytotoxicity at 70.5 h is 5.14%.

In the case of `COCCn1cc(C(=O)NC2CCS(=O)(=O)C2)c2ccccc2c1=O` (configuration not stated), the cytotoxicity at 70.5 h is -14.8%.

As to `Cc1nnc2n1CCN(CCS(=O)(=O)c1ccccc1)C2`, the cytotoxicity at 70.5 h is -9.06%.

In the case of `CC(C)CCC(=O)N1C[C@H]2CCN[C@H]2C1`, the cytotoxicity at 70.5 h is -3.29%.

Turning to `CN(C)c1nccc(-c2cnc(N(C)C)[nH]c2=O)n1`, the cytotoxicity at 70.5 h was -5.37%.

For the molecule `O=C(CCC1CCN(C(=O)c2csnn2)CC1)NCc1cccc(Cl)c1`, the cytotoxicity at 70.5 h stood at 7.85%.

In the case of `CC(C)Nc1cc(N2CCC(n3cc(CCO)nn3)CC2)ncn1`, the cytotoxicity at 70.5 h came to 16.9%.

In the case of `Cn1cnc(S(=O)(=O)NCCN2CCCCCC2)c1Cl`, the cytotoxicity at 70.5 h was 4.34%.

Regarding `CN(Cc1ccc(C(=O)O)cc1)C(=O)c1sccc1OC(F)F`, the cytotoxicity at 70.5 h was 3.59%.

On to `CN(Cc1cccc(C#N)c1)Cc1nc2c(cnn2C)c(=O)[nH]1`, for which the cytotoxicity at 70.5 h is -19%.

In the case of `Cc1c(C(=O)NCC2CCN(Cc3c[nH]cn3)C2)[nH]c2ccccc12` (configuration not stated), the cytotoxicity at 70.5 h came out at 8.7%.

For the molecule `Cc1cccc(-n2nnnc2C(C)(C)Nc2ccccc2C)c1`, the cytotoxicity at 70.5 h stood at 0.855%.

For the molecule `Cn1ccnc1C(=O)N[C@@H]1CN(CC2CCOCC2)[C@@H]2CCCO[C@@H]21`, the cytotoxicity at 70.5 h was -2.65%.

Turning to `CC(C)c1nnc2n1CCN(C(=O)c1ccnc(N(C)C)c1)C2`, the cytotoxicity at 70.5 h was -0.0863%.

As for `COCCOCC(=O)N1CCC(c2ccccc2F)C1` (configuration not stated), the cytotoxicity at 70.5 h was -9.1%.

Regarding `Cc1nnc(CN(C)CC(=O)NC(C)(C)c2ccc(F)cc2)n1C`, the cytotoxicity at 70.5 h is -6.19%.

For `N#Cc1cccc(CN2CCO[C@@H]3CNC[C@@H]32)c1`, the cytotoxicity at 70.5 h is -1.26%.

For the molecule `Cc1cc(CN2CCC3(CC2)COC(COc2ccccn2)C3)no1` (configuration not stated), the cytotoxicity at 70.5 h was 43%.

Turning to `Cc1ccc(C(=O)NCCN2CCOCC2)cc1N(C)S(C)(=O)=O`, the cytotoxicity at 70.5 h was 1.25%.

For `c1ccc(-c2nnc(CN3C[C@@H]4CC[C@H](C3)N(CC3CCC3)C4)o2)cc1`, the cytotoxicity at 70.5 h came to 18.8%.

Turning to `CCc1nc2c(c(NCc3nc(-c4cccnc4)no3)n1)CCNCC2`, the cytotoxicity at 70.5 h is -2.89%.

`CC(C)c1noc(CCC(=O)NCC2CCS(=O)(=O)C2)n1` (configuration not stated): the cytotoxicity at 70.5 h came to 1.64%.

With `Cc1ccc(-c2c(-c3ccccc3)ncn2CCCN2CCOCC2)o1`, the cytotoxicity at 70.5 h is -11.8%.

For the molecule `CCc1n[nH]c(C2CN(CCCS(C)(=O)=O)CCO2)n1` (configuration not stated), the cytotoxicity at 70.5 h was 32.1%.

For the molecule `Cc1cnn(CC2CCCN2C(=O)Cc2c(C)noc2C)c1` (configuration not stated), the cytotoxicity at 70.5 h was -14%.

Turning to `Cn1ncc2c(N3CCN(CCC(N)=O)CC3)nc(C3CCCC3)nc21`, the cytotoxicity at 70.5 h was -9.84%.

On to `CCOc1cncc(N2CCN(c3ccccc3F)CC2)n1`, for which the cytotoxicity at 70.5 h came out at 6.24%.

On to `Cc1cccc(N2CCN(C(=O)CCCC(=O)N(C)C)C(C)C2)n1` (configuration not stated), for which the cytotoxicity at 70.5 h was -18.7%.

Take `Cc1n[nH]cc1CNCC1(c2ccc3c(c2)OCO3)CCOCC1`: the cytotoxicity at 70.5 h is -5.66%.

As to `O=C(NCc1ccccn1)[C@]12COC[C@H]1CN(Cc1ccccc1F)C2`, the cytotoxicity at 70.5 h was -7.42%.

Turning to `Cc1cnccc1CN1CC[C@@](C)(O)[C@H](Oc2ccccc2)C1`, the cytotoxicity at 70.5 h came to 22.4%.

As for `CN(C)c1ncccc1CNC(=O)NCc1ccco1`, the cytotoxicity at 70.5 h worked out at 0.432%.

On to `COc1ccnc(N2CCN(C(=O)c3csc(C(C)C)n3)CC2)n1`, for which the cytotoxicity at 70.5 h was 9.24%.

Regarding `O=C1C(NCc2nnc3n2CCCC3)CCN1CC(F)(F)F` (configuration not stated), the cytotoxicity at 70.5 h came to 20.6%.

Turning to `N#Cc1cccc(NC(=O)N(CC(F)F)C2CC2)c1`, the cytotoxicity at 70.5 h is -2.73%.

As for `O=C(NCC1CC1)C1CN(C(=O)c2cccs2)CC12CCOCC2` (configuration not stated), the cytotoxicity at 70.5 h was -13.2%.

For `COc1ccc(N2CCN(C(=O)CCc3n[nH]c(C)n3)CC2=O)cc1`, the cytotoxicity at 70.5 h stood at 15.6%.
